Key:
[1] = test system: rats with type 2 diabetes; conditions: non-patent reference 7; cited from earlier work
Wistar rat = assay: Fasting blood sugar level in Wistar rat
fat-loaded ZF rat = assay: Oral glucose loading in fat-loaded ZF rat; type: in vivo
Method: Effect of Compound 3 on Increase in Plasma Glucose after Oral Glucose Loading in Fat-Loaded ZF Rat
The test was performed using male ZF rats. The number of experimental examples was 10 for each group. […] The administered volume was 2 mL/kg for both. At 15 min after the administration, a fat emulsion (main component was soybean oil, Intralipos; Otsuka Pharmaceutical Factory, Inc.) was orally loaded at the rate of […]. Furthermore, at 6 hr after the administration of fat emulsion, a mixed carbohydrate solution of starch, sucrose and lactose (mixing ratio 6:3:1) was orally administered at 3.5 g/kg. The volume administered of each of the fat emulsion and the carbohydrate solution was 10 mL/kg. Blood samples were sequentially collected, and plasma glucose concentration was measured.

ZF rat = assay: Oral fat loading in ZF rat (abnormal lipid and glucose metabolism); type: in vivo
Method: Effect of Compound 3 on Abnormal Lipid Metabolism and Abnormal Glucose Metabolism after Oral Fat Loading in ZF Rat
The test was performed using male ZF rats. The rats were divided into two groups (10 rats/group). Compound 3 (1 mg/kg) or a 0.5% hydroxypropylmethylcellulose solution, which was a vehicle used to dissolve the compound, was administered by gavage to each of the rats. The administered volume was 2 mL/kg for both. At 15 min after the administration, a fat emulsion (main component was soybean oil, Intralipos; Otsuka Pharmaceutical Factory, Inc.) was orally loaded at the rate of 10 mL/kg. Blood samples were sequentially collected, and plasma TG concentration, free fatty acids concentration, glucose concentration and insulin concentration were measured.

[2] = ZF rat, summary statement, dose not given

## CC(C)[C@H]1CC[C@H](C(=O)N[C@H](Cc2ccccc2)C(=O)O)CC1 [nateglinide, (−)-N-(trans-4-isopropylcyclohexylcarbonyl)-D-phenylalanine, reference compound]
[1]
  increase in blood lipid by fat loading: suppresses
Wistar rat; overnight-fasted male Wistar rats, gavage, nateglinide 10, 30, 100 or 300 mg/kg, maximum change from value before drug administration (FIG. 6)
  plasma glucose concentration (hypoglycemia): induced hypoglycemia
Wistar rat; overnight-fasted male Wistar rats, gavage, nateglinide 10, 30, 100 or 300 mg/kg, maximum change from value before drug administration (FIG. 7)
  plasma insulin concentration: increased

## Br.Cc1cc(N2CCN([C@@H]3CN[C@H](C(=O)N4CCSC4)C3)CC2)n(-c2ccccc2)n1 [compound 1, 3-{(2S,4S)-4-[4-(3-methyl-1-phenyl-1H-pyrazol-5-yl)piperazin-1-yl]pyrrolidin-2-ylcarbonyl}thiazolidine hydrobromide]
fat-loaded ZF rat; [2]
  blood glucose increase after glucose loading in an oral glucose loading test after fat loading: markedly suppresses
Wistar rat; summary statement, unlike insulin secretagogue, dose not given
  hypoglycemia: does not induce hypoglycemia
ZF rat; [2]
  blood glucose increase after the fat loading: suppresses
ZF rat; obese Zucker fatty rat having insulin resistance, summary statement, dose not given
  increase in the plasma TG concentration after fat loading: suppresses

## Br.Br.Br.Br.Br.Cc1cc(N2CCN([C@@H]3CN[C@H](C(=O)N4CCSC4)C3)CC2)n(-c2ccccc2)n1.Cc1cc(N2CCN([C@@H]3CN[C@H](C(=O)N4CCSC4)C3)CC2)n(-c2ccccc2)n1 [compound 3, 3-{(2S,4S)-4-[4-(3-methyl-1-phenyl-1H-pyrazol-5-yl)piperazin-1-yl]pyrrolidin-2-ylcarbonyl}thiazolidine 2.5 hydrobromide]
fat-loaded ZF rat; male fat-loaded ZF rats, 1 mg/kg by gavage 15 min before fat emulsion (FIG. 5)
  increase in the baseline plasma glucose concentration by fat loading: suppressed
fat-loaded ZF rat; male fat-loaded ZF rats, 1 mg/kg by gavage, mixed carbohydrate 3.5 g/kg orally at 6 hr after fat loading (FIG. 5)
  increase in the plasma glucose concentration after oral glucose loading: suppressed
Wistar rat; overnight-fasted male Wistar rats, gavage, dose of 100 mg/kg, maximum change from value before drug administration (FIG. 6)
  fasting plasma glucose concentration: no effect
Wistar rat; overnight-fasted male Wistar rats, gavage, dose of 100 mg/kg, maximum change from value before drug administration (FIG. 7)
  fasting insulin concentration: no effect
ZF rat; male ZF rats, 1 mg/kg by gavage 15 min before oral fat emulsion 10 mL/kg, change from value before fat loading (FIG. 1)
  increase in the plasma TG concentration after fat loading: suppressed
ZF rat; male ZF rats, 1 mg/kg by gavage 15 min before oral fat emulsion 10 mL/kg, change from value before fat loading (FIG. 2)
  increase in the plasma free fatty acids concentration after fat loading: suppressed
ZF rat; male ZF rats, 1 mg/kg by gavage 15 min before oral fat emulsion 10 mL/kg, change from value before fat loading (FIG. 3)
  increase in the plasma glucose concentration after fat loading: suppressed
ZF rat; male ZF rats, 1 mg/kg by gavage 15 min before oral fat emulsion 10 mL/kg, change from value before fat loading (FIG. 4)
  plasma insulin concentration after fat loading: transiently increased

Source: patent publication US20100305139A1, “METHOD OF TREATING ABNORMAL LIPID METABOLISM” (MITSUBISHI TANABE PHARMA CORPORATION, priority 2005, published 2010)
